Our source for the IC50 values is patent US20250136596A1, “MEMBRANE-ASSOCIATED TYROSINE- AND THREONINE-SPECIFIC CDC2-INHIBITORY KINASE (PKMYT1) INHIBITORS AND USES THEREOF” (Insilico Medicine IP Limited, priority 2022, published 2025).

The target in the experiment is PKMYT1 (Homo sapiens (Human), UniProt Q99640). Briefly: PKMYT1 HTRF Assay. In kind it is binding. Particulars: Tracer 178, GST-Tb; compound 10 μM to 0.5 nM; read-out: MYT1 HTRF IC50. Put shortly:
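Compound (final 10 μM to 0.5 nM) preincubated with PKMYT1 enzyme 15 min at 25° C, then Tracer 178 added for 60 min at 25° C. GST-Tb added, 15 min at 25° C, before HTRF readout.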
(In general: In TR-FRET formats the signal depends on donor and acceptor labels being close together.)

PKMYT1, sequence (Q99640 whole entry): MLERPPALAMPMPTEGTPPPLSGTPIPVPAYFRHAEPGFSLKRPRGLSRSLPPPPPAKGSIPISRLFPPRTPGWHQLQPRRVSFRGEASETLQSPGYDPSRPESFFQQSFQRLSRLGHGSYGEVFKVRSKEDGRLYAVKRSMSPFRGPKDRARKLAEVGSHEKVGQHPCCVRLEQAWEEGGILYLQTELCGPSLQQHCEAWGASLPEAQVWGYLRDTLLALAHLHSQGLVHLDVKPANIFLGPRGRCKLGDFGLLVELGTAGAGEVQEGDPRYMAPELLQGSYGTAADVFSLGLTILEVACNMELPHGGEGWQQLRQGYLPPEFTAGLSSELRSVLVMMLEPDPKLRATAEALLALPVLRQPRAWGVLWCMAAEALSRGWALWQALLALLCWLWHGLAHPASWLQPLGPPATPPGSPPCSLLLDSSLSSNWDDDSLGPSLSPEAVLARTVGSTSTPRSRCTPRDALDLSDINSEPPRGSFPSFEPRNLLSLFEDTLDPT

The term IC50 denotes the concentration needed to halve the response being measured. For the compound `Cc1ccc(O)c(C)c1-c1cnc2[nH]c(C3=CCCOC3)cc2c1C#N` [Example 36, 2-(5,6-dihydro-2H-pyran-3-yl)-5-(3-hydroxy-2,6-dimethylphenyl)-1H-pyrrolo[2,3-b]pyridine-4-carbonitrile], the IC50 is 10 to 50 nM.

For the compound `Cc1ccc(O)c(C)c1-c1cnc2[nH]c(-c3cnc(N4CCC(F)(F)C4)nc3)c(Cl)c2c1C#N` [Example 38, (R)-3-chloro-2-(2-(3,3-difluoropyrrolidin-1-yl)pyrimidin-5-yl)-5-(3-hydroxy-2,6-dimethylphenyl)-1H-pyrrolo[2,3-b]pyridine-4-carbonitrile], the IC50 is < 10 nM.

With `Cc1ccc(O)c(C)c1-c1cnc2[nH]c(-c3cnn(CCO)c3)cc2c1` [Example 81, 3-(2-(1-(2-hydroxyethyl)-1H-pyrazol-4-yl)-1H-pyrrolo[2,3-b]pyridin-5-yl)-2,4-dimethylphenol], the IC50 fell in the range of 50 to 500 nM.

Take `Cc1ccc(O)c(C)c1-c1cnc2[nH]c(-c3cnc(CN4CC(F)(F)C4)nc3)cc2c1C#N` [Example 94, (R)-2-(2-((3,3-difluoroazetidin-1-yl)methyl)pyrimidin-5-yl)-5-(3-hydroxy-2,6-dimethylphenyl)-1H-pyrrolo[2,3-b]pyridine-4-carbonitrile]: the IC50 is < 10 nM.

Regarding `Cc1ncc(-c2cc3c(C#N)c(-c4c(C)ccc(O)c4C)cnc3[nH]2)cn1` (atropisomer, axis not shown) [Example 32, (S)-5-(3-hydroxy-2,6-dimethylphenyl)-2-(2-methylpyrimidin-5-yl)-1H-pyrrolo[2,3-b]pyridine-4-carbonitrile], the IC50 is < 10 nM.

Turning to `Cc1ccc(O)c(C)c1-c1cnc2[nH]c(-n3cc(N)cn3)cc2c1C#N` [Example 133, (S)-2-(4-amino-1H-pyrazol-1-yl)-5-(3-hydroxy-2,6-dimethylphenyl)-1H-pyrrolo[2,3-b]pyridine-4-carbonitrile], the IC50 was < 10 nM.

`Cc1ccc(O)c(C)c1-c1cnc2[nH]c(-c3cnc(N4CC(O)C4)nc3)cc2n1` [Example 18, 1-(5-(2-(3-hydroxy-2,6-dimethylphenyl)-5H-pyrrolo[2,3-b]pyrazin-6-yl)pyrimidin-2-yl)azetidin-3-ol]: the IC50 is < 10 nM.

For the compound `Cc1ccc(O)c(C)c1-c1cnc2[nH]c(-c3cnc(N4CC[S@SP1](=O)(=O)CC4)nc3)c(Cl)c2c1C#N` [Example 84, (R)-3-chloro-2-(2-(1,1-dioxidothiomorpholino)pyrimidin-5-yl)-5-(3-hydroxy-2,6-dimethylphenyl)-1H-pyrrolo[2,3-b]pyridine-4-carbonitrile], the 50% inhibitory concentration (IC50) was < 10 nM.

In the case of `Cc1ccc(O)c(C)c1-c1cnc2[nH]c(-c3cnc(O)nc3)cc2c1C#N` [Example 52, (R)-5-(3-hydroxy-2,6-dimethylphenyl)-2-(2-hydroxypyrimidin-5-yl)-1H-pyrrolo[2,3-b]pyridine-4-carbonitrile], the IC50 is < 10 nM.

As for `Cc1ccc(O)c(C)c1-c1cnc2[nH]c(-n3ccnc3)cc2c1C#N` [Example 122, (S)-5-(3-hydroxy-2,6-dimethylphenyl)-2-(1H-imidazol-1-yl)-1H-pyrrolo[2,3-b]pyridine-4-carbonitrile], the IC50 was < 10 nM.

For the compound `Cc1ccc(O)c(C)c1-c1cnc2[nH]c(-c3cnc(C(C)(C)O)nc3)cc2c1C#N` [Example 86, 5-(3-hydroxy-2,6-dimethylphenyl)-2-(2-(2-hydroxypropan-2-yl)pyrimidin-5-yl)-1H-pyrrolo[2,3-b]pyridine-4-carbonitrile], the IC50 was < 10 nM.

As for `Cc1ncc(-c2[nH]c3ncc(-c4c(C)ccc(O)c4C)c(C#N)c3c2Cl)c(C)n1` [Example 78, (R)-3-chloro-2-(2,4-dimethylpyrimidin-5-yl)-5-(3-hydroxy-2,6-dimethylphenyl)-1H-pyrrolo[2,3-b]pyridine-4-carbonitrile], the IC50 was in the range of 50 to 500 nM.

Consider `Cc1ccc(O)c(C)c1-c1cnc2[nH]c(-c3cnn(C)c3)cc2c1C#N` [Example 118, (S)-5-(3-hydroxy-2,6-dimethylphenyl)-2-(1-methyl-1H-pyrazol-4-yl)-1H-pyrrolo[2,3-b]pyridine-4-carbonitrile], for which the 50% inhibitory concentration (IC50) is < 10 nM.

Regarding `Cc1ccc(O)c(C)c1-c1cnc2[nH]c(-c3cnc(N)nn3)cc2c1C#N` [Example 127, (S)-2-(3-amino-1,2,4-triazin-6-yl)-5-(3-hydroxy-2,6-dimethylphenyl)-1H-pyrrolo[2,3-b]pyridine-4-carbonitrile], the IC50 was < 10 nM.

`Cc1ccc(O)c(C)c1-c1cnc2[nH]c(-c3cnc(C(F)(F)F)nc3)cc2c1C#N` [Example 55, 5-(3-hydroxy-2,6-dimethylphenyl)-2-(2-(trifluoromethyl)pyrimidin-5-yl)-1H-pyrrolo[2,3-b]pyridine-4-carbonitrile]: the IC50 is < 10 nM.

In the case of `Cc1cnc(-c2cc3cc(-c4c(C)ccc(O)c4C)cnc3[nH]2)cn1` [Example 29, 2,4-dimethyl-3-(2-(5-methylpyrazin-2-yl)-1H-pyrrolo[2,3-b]pyridin-5-yl)phenol], the IC50 is 50 to 500 nM.

Regarding `Cc1ccc(O)c(C)c1-c1cnc2[nH]c(-c3ccc(N4CCN(C)CC4)nc3C)nc2c1C` [Example 2, 2,4-dimethyl-3-(7-methyl-2-(2-methyl-6-(4-methylpiperazin-1-yl)pyridin-3-yl)-3H-imidazo[4,5-b]pyridin-6-yl)phenol], the IC50 lay within 500 to 5000 nM.

For the compound `Cc1ccc(O)c(C)c1-c1cnc2[nH]c(-c3cnc(N)nc3)nc2c1C#N` [Example 116, (S)-2-(2-aminopyrimidin-5-yl)-6-(3-hydroxy-2,6-dimethylphenyl)-3H-imidazo[4,5-b]pyridine-7-carbonitrile], the IC50 was < 10 nM.

With `Cc1ccc(O)c(C)c1-c1cnc2[nH]c(-c3cnc(CN4CCCC4)nc3)cc2c1C#N` [Example 93, (R)-5-(3-hydroxy-2,6-dimethylphenyl)-2-(2-(pyrrolidin-1-ylmethyl)pyrimidin-5-yl)-1H-pyrrolo[2,3-b]pyridine-4-carbonitrile], the IC50 was < 10 nM.

For the compound `Cc1ccc(O)c(C)c1-c1cnc2[nH]c(-c3cnc(N)nc3)cc2c1C#N` [Example 39, (R)-2-(2-aminopyrimidin-5-yl)-5-(3-hydroxy-2,6-dimethylphenyl)-1H-pyrrolo[2,3-b]pyridine-4-carbonitrile], the IC50 is < 10 nM.

With `Cc1ccc(O)c(C)c1-c1cnc2[nH]c(-c3cnc(N4CCC(C(=O)O)C4)nc3)c(Cl)c2c1C#N` [Example 72, (R)-1-(5-((R)-3-chloro-4-cyano-5-(3-hydroxy-2,6-dimethylphenyl)-1H-pyrrolo[2,3-b]pyridin-2-yl)pyrimidin-2-yl)pyrrolidine-3-carboxylic acid], the half-inhibitory concentration (IC50) was < 10 nM.

For the compound `Cc1ncc(-c2[nH]c3ncc(-c4c(C)ccc(O)c4C)c(C#N)c3c2C(F)(F)F)cn1` [Example 112, 5-(3-hydroxy-2,6-dimethylphenyl)-2-(2-methylpyrimidin-5-yl)-3-(trifluoromethyl)-1H-pyrrolo[2,3-b]pyridine-4-carbonitrile], the IC50 lay in the range of 10 to 50 nM.

Regarding `Cc1ccc(O)c(C)c1-c1cnc2[nH]c(-c3cnc(N4CC(O)C4)nc3)cc2c1C#N` [Example 45, (R)-5-(3-hydroxy-2,6-dimethylphenyl)-2-(2-(3-hydroxyazetidin-1-yl)pyrimidin-5-yl)-1H-pyrrolo[2,3-b]pyridine-4-carbonitrile], the IC50 was < 10 nM.
